Patent US12599672B2, “KRAS proteolysis targeting chimeras” (PAQ Therapeutics Inc., priority 2023, dated 2026)

Tests used:
Format in all cases: cell-based
[1] = target: T1, KRAS G12D (Homo sapiens, UniProt P01116, G12D); test: KRAS G12D HiBit assay; details: AsPc-1-KRAS (G12D)-HiBit-KI cell, compound treatment for 24 hours, absolute DC50
T1 construct: AsPc-1-KRAS (G12D)-HiBit-KI cell (Pharmaron); host or cells: AsPc-1-KRAS (G12D)-HiBit-KI cells (HiBiT knock-in at the endogenous KRAS locus)
How it was run: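 Cells were treated for 24 h with compounds in a 3-fold, 10-point dilution series from a 0.3 mM DMSO stock, then equilibrated 15 min at room temperature. KRAS G12D HiBiT levels were read by luminescence after lytic Nano-Glo HiBiT reagent with LgBiT; inhibition calculated relative to 0.1% DMSO high control.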

[2] = target: T2, KRAS G12V (Homo sapiens, UniProt P01116, G12V); test: KRAS G12V HiBit assay; details: SW620-KRAS (G12V)-HiBit-KI cells, compound treatment for 24 hours, class symbols
T2 construct: SW620-KRAS (G12V)-HiBit-KI cell (Pharmaron); host or cells: SW620-KRAS (G12V)-HiBit-KI cells (HiBiT knock-in at the endogenous KRAS locus)
How it was run: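 HiBiT-tagged KRAS G12V cells treated 24 h with compound in a 3-fold, 10-point series (0.3 mM DMSO stock); lytic HiBiT reagent with LgBiT added after 15 min room-temperature equilibration. Degradation calculated against 0.1% DMSO high control.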

[3] = target: T3, KRAS (Homo sapiens, UniProt P01116); test: KRASamp MSD assay; details: KE39 (KRAS amplified) cells, treated with test compounds for 24 hr, MSD readout of KRAS degradation
T3 construct: endogenous in cells; host or cells: KE39 (KRAS amplified) cells
How it was run: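 KRAS-amplified KE39 cells treated with compound for 24 hr, then lysed in RIPA buffer with protease/phosphatase inhibitors. KRAS protein measured by MSD sandwich immunoassay against a recombinant WT KRAS standard curve; DC50 derived from curve fitting of degradation.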

[4] = numeric bounds given in place of class symbols

T1 sequence (P01116 1-188 isoform P01116-2 G12D): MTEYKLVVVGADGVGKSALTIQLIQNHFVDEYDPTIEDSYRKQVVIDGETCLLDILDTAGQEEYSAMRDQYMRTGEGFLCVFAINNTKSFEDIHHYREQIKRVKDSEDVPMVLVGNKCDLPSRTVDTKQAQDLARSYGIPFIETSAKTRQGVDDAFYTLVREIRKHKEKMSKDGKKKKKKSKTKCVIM
T3 sequence (P01116 1-188 isoform P01116-2): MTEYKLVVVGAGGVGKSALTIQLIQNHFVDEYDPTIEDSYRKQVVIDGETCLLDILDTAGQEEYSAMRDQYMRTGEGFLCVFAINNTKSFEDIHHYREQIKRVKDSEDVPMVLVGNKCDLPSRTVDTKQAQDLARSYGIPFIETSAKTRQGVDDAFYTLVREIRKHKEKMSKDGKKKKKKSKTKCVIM
T2 sequence (P01116 1-188 isoform P01116-2 G12V): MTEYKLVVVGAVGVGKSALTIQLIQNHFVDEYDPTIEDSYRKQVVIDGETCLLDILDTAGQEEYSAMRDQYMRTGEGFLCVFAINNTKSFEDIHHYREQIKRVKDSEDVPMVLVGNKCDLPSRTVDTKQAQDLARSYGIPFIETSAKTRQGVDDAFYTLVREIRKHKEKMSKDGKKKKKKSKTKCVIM

Row | DC50 ([1]; class symbols) [nM] | DC50 [2] [nM] | DC50 [3] [nM] | DC50 [1, 4] [nM] | SMILES
1 | < 100 | < 10 | < 1 |  | CCc1c(F)ccc2cc(O)cc(-c3ncc4c(N5CCC[C@@](C)(O)C5)nc(OC[C@@]56CCCN5[C@H](COC(=O)N5C7CCC5CC(CN5CCC(c8ccc9c(c8)n(C)c(=O)n9C8CCC(=O)NC8=O)CC5)C7)CC6)nc4c3F)c12 (stereo partly drawn) [Compound 392, ((3S,7aS)-7a-(((7-(8-ethyl-7-fluoro-3-hydroxynaphthalen-1-yl)-8-fluoro-4-((R)-3-hydroxy-3-methylpiperidin-1-yl)pyrido[4,3-d]pyrimidin-2-yl)oxy)methyl)hexahydro-1H-pyrrolizin-3-yl)methyl 3-((4-(1-(2,6-dioxopiperidin-3-yl)-3-methyl-2-oxo-2,3-dihydro-1H-benzo[d]imidazol-5-yl)piperidin-1-yl)methyl)-8-azabicyclo[3.2.1]octane-8-carboxylate]
2 |  | < 10 | 1 to 10 | > 100 | CCc1c(F)ccc2cc(O)cc(-c3ncc4c(N5CCC[C@@](C)(O)C5)nc(OC[C@@]56CCCN5[C@H](COC(=O)N5CC(CN7CCC(c8ccc9c(c8)n(C)c(=O)n9C8CCC(=O)NC8=O)CC7)C5)CC6)nc4c3F)c12 (stereo partly drawn) [Compound 394, ((3S,7aS)-7a-(((7-(8-ethyl-7-fluoro-3-hydroxynaphthalen-1-yl)-8-fluoro-4-((R)-3-hydroxy-3-methylpiperidin-1-yl)pyrido[4,3-d]pyrimidin-2-yl)oxy)methyl)hexahydro-1H-pyrrolizin-3-yl)methyl 3-((4-(1-(2,6-dioxopiperidin-3-yl)-3-methyl-2-oxo-2,3-dihydro-1H-benzo[d]imidazol-5-yl)piperidin-1-yl)methyl)azetidine-1-carboxylate]
3 | < 100 | < 10 | < 1 |  | CCc1c(F)ccc2cc(O)cc(-c3ncc4c(N5CCC[C@@](C)(O)C5)nc(OC[C@@]56CCCN5[C@H](COC(=O)N5CC7(CC(CN8CCC(c9ccc%10c(c9)n(C)c(=O)n%10C9CCC(=O)NC9=O)CC8)C7)C5)CC6)nc4c3F)c12 (stereo partly drawn) [Compound 396, ((3S,7aS)-7a-(((7-(8-ethyl-7-fluoro-3-hydroxynaphthalen-1-yl)-8-fluoro-4-((R)-3-hydroxy-3-methylpiperidin-1-yl)pyrido[4,3-d]pyrimidin-2-yl)oxy)methyl)hexahydro-1H-pyrrolizin-3-yl)methyl 6-((4-(1-(2,6-dioxopiperidin-3-yl)-3-methyl-2-oxo-2,3-dihydro-1H-benzo[d]imidazol-5-yl)piperidin-1-yl)methyl)-2-azaspiro[3.3]heptane-2-carboxylate]
4 | < 100 | < 10 | < 1 |  | CCc1c(F)ccc2cc(O)cc(-c3ncc4c(N5CCC[C@@](C)(O)C5)nc(OC[C@@]56CCCN5[C@H](COC(=O)N5CCC(CN7CCC(c8ccc9c(c8)n(C)c(=O)n9C8CCC(=O)NC8=O)CC7)C(F)(F)C5)CC6)nc4c3F)c12 (stereo partly drawn) [Compound 397, ((3S,7aS)-7a-(((7-(8-ethyl-7-fluoro-3-hydroxynaphthalen-1-yl)-8-fluoro-4-((R)-3-hydroxy-3-methylpiperidin-1-yl)pyrido[4,3-d]pyrimidin-2-yl)oxy)methyl)hexahydro-1H-pyrrolizin-3-yl)methyl 4-((4-(1-(2,6-dioxopiperidin-3-yl)-3-methyl-2-oxo-2,3-dihydro-1H-benzo[d]imidazol-5-yl)piperidin-1-yl)methyl)-3,3-difluoropiperidine-1-carboxylate]
5 | < 100 | < 10 | < 1 |  | CCc1c(F)ccc2cc(O)cc(-c3ncc4c(N5CCC[C@@](C)(O)C5)nc(OC[C@@]56CCCN5[C@H](COC(=O)N5CCC(CN7CCC(c8ccc9c(c8)n(C)c(=O)n9C8CCC(=O)NC8=O)C(F)(F)C7)CC5)CC6)nc4c3F)c12 (stereo partly drawn) [Compound 398, ((3S,7aS)-7a-(((7-(8-ethyl-7-fluoro-3-hydroxynaphthalen-1-yl)-8-fluoro-4-((R)-3-hydroxy-3-methylpiperidin-1-yl)pyrido[4,3-d]pyrimidin-2-yl)oxy)methyl)hexahydro-1H-pyrrolizin-3-yl)methyl 4-((4-(1-(2,6-dioxopiperidin-3-yl)-3-methyl-2-oxo-2,3-dihydro-1H-benzo[d]imidazol-5-yl)-3,3-difluoropiperidin-1-yl)methyl)piperidine-1-carboxylate]
6 | < 100 | < 10 | < 1 |  | CCc1c(F)ccc2cc(O)cc(-c3ncc4c(N5CCC[C@@](C)(O)C5)nc(OC[C@@]56CCCN5[C@H](COC(=O)N5CCC(C7(N8CCC(c9ccc%10c(c9)n(C)c(=O)n%10C9CCC(=O)NC9=O)CC8)CC7)CC5)CC6)nc4c3F)c12 (stereo partly drawn) [Compound 399, ((3S,7aS)-7a-(((7-(8-Ethyl-7-fluoro-3-hydroxynaphthalen-1-yl)-8-fluoro-4-((R)-3-hydroxy-3-methylpiperidin-1-yl)pyrido[4,3-d]pyrimidin-2-yl)oxy)methyl)hexahydro-1H-pyrrolizin-3-yl)methyl 4-(1-(4-(1-(2,6-dioxopiperidin-3-yl)-3-methyl-2-oxo-2,3-dihydro-1H-benzo[d]imidazol-5-yl)piperidin-1-yl)cyclopropyl) piperidine-1-carboxylate]
7 | < 100 | 10 to 100 | 1 to 10 |  | CCc1c(F)ccc2cc(O)cc(-c3ncc4c(N5CCC[C@@](C)(O)C5)nc(OC[C@@]56CCCN5[C@H](CN5CCC(CN7CCC(c8ccc9c(c8)n(C)c(=O)n9C8CCC(=O)NC8=O)CC7)CC5)CC6)nc4c3F)c12 (stereo partly drawn) [Compound 402, 3-(5-(1-((1-(((35,7aS)-7a-(((7-(8-Ethyl-7-fluoro-3-hydroxynaphthalen-1-yl)-8-fluoro-4-((R)-3-hydroxy-3-methylpiperidin-1-yl)pyrido[4,3-d]pyrimidin-2-yl)oxy)methyl)hexahydro-1H-pyrrolizin-3-yl)methyl)piperidin-4-yl)methyl)piperidin-4-yl)-3-methyl-2-oxo-2,3-dihydro-1H-benzo[d]imidazol-1-yl) piperidine-2,6-dione]
8 |  | < 10 | 1 to 10 | > 100 | CCc1c(F)ccc2cc(O)cc(-c3ncc4c(N5CCC[C@@](C)(O)C5)nc(OC[C@@]56CCCN5[C@H](COC(=O)N5CCC(C#Cc7ccc8c(c7)n(C)c(=O)n8C7CCC(=O)NC7=O)CC5)CC6)nc4c3F)c12 (stereo partly drawn) [Compound 404, ((3S,7aS)-7a-(((7-(8-ethyl-7-fluoro-3-hydroxynaphthalen-1-yl)-8-fluoro-4-((R)-3-hydroxy-3-methylpiperidin-1-yl)pyrido[4,3-d]pyrimidin-2-yl)oxy)methyl)hexahydro-1H-pyrrolizin-3-yl)methyl 4-((1-(2,6-dioxopiperidin-3-yl)-3-methyl-2-oxo-2,3-dihydro-1H-benzo[d]imidazol-5-yl)ethynyl)piperidine-1-carboxylate]
9 | < 100 | 10 to 100 | 1 to 10 |  | C#Cc1cc(F)cc2cc(O)cc(-c3ncc4c(N5CCC[C@@](C)(O)C5)nc(OC[C@@]56CCCN5[C@H](COC(=O)N5CCC(CN7CCC(c8ccc9c(c8)n(C)c(=O)n9C8CCC(=O)NC8=O)CC7)CC5)CC6)nc4c3F)c12 (stereo partly drawn) [Compound 405, ((3S,7aS)-7a-(((7-(8-Ethynyl-6-fluoro-3-hydroxynaphthalen-1-yl)-8-fluoro-4-((R)-3-hydroxy-3-methylpiperidin-1-yl)pyrido[4,3-d]pyrimidin-2-yl)oxy)methyl)hexahydro-1H-pyrrolizin-3-yl)methyl 4-((4-(1-(2,6-dioxopiperidin-3-yl)-3-methyl-2-oxo-2,3-dihydro-1H-benzo[d]imidazole-5-yl)piperidin-1-yl)methyl) piperidine-1-carboxylate]
